# Changes are numbered by the printed parent chain.
# Experiments:
# Format in all cases: cell-based
# Venus-Pkd1-AS2 = target: T1, Venus-Pkd1-AS2 (Mus musculus, UniProt Q62101, M665A); assay: Puncta formation of Venus-Pkd1-AS2 in neurons; settings: 1 µM, one hour of inhibitor treatment
# T1 sequence (Q62101 1-918 M665A): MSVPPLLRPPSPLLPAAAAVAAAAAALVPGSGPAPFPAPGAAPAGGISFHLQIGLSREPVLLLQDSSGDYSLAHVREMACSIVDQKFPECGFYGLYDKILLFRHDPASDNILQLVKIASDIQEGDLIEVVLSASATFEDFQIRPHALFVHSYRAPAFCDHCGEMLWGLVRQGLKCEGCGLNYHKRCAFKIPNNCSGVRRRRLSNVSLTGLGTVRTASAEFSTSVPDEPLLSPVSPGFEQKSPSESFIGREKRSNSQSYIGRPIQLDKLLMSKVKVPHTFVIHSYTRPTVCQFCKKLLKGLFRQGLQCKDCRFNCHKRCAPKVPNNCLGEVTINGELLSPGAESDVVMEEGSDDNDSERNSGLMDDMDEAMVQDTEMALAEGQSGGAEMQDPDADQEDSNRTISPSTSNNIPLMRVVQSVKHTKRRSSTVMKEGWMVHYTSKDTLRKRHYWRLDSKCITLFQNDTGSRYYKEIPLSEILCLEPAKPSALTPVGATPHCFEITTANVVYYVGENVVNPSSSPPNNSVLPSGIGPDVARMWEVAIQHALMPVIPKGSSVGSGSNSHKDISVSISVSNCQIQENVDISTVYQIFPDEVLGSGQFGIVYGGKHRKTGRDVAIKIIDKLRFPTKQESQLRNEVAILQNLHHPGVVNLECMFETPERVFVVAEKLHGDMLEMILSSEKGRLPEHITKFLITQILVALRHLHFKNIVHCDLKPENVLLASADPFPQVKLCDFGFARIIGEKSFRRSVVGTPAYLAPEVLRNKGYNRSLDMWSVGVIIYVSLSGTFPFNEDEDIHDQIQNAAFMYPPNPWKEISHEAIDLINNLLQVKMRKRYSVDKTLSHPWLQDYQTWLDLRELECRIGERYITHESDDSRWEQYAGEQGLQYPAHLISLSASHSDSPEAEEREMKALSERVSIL
# Pkd1-WT = target: T2, Pkd1-WT (Mus musculus, UniProt Q62101); assay: Pkd1-WT autophosphorylation in transfected HEK 293T cells; settings: 1 µM
# T2 sequence (Q62101 1-918): T1 sequence (Q62101 1-918 M665A) with A665M
# Venus-Pkd1-WT = target: T3, Venus-Pkd1-WT (Mus musculus, UniProt Q62101); assay: Puncta formation of Venus-Pkd1-WT in neurons; settings: 1 µM, one hour of inhibitor treatment
# T3 sequence (Q62101 1-918): T1 sequence (Q62101 1-918 M665A) with A665M
# Pkd1-AS2 (M665A) = target: T4, Pkd1-AS2 (M665A) (Mus musculus, UniProt Q62101, M665A); assay: Pkd1-AS2 autophosphorylation in transfected HEK 293T cells; settings: 1 µM
# T4 sequence (Q62101 1-918 M665A): T1 sequence (Q62101 1-918 M665A)
compound,measurement,setting,value
CC(C)(C)n1nc(-c2cccc3ccccc23)c2c(N)ncnc21 [1NA-PP1],"puncta formation, Venus-Pkd1-AS2 neurons",Venus-Pkd1-AS2,forming discrete puncta
same,effect on autophosphorylation by Pkd1-WT,Pkd1-WT,but not the wild type kinase
same,"puncta formation, Venus-Pkd1-WT neurons",Venus-Pkd1-WT,unaffected
same,effect on autophosphorylation by Pkd1-AS2,Pkd1-AS2 (M665A),completely abrogates autophosphorylation
